Laboratory results reported in patent US9617286B2, “Fungicide N-[(trisubstitutedsilyl)methyl]-carboxamide derivatives” (BAYER INTELLECTUAL PROPERTY GMBH, priority 2011, dated 2017).

Assay: log P by HPLC on reversed-phase column (C 18), EEC Directive 79/831 Annex V.A8
Format: physicochemical
Conditions: 40° C., 0.1% aqueous formic acid and acetonitrile, linear gradient 10% to 90% acetonitrile
Description: In table 1, the log P values were determined in accordance with EEC Directive 79/831 Annex V.A8 by HPLC (High Performance Liquid Chromatography) on a reversed-phase column (C 18), using the method described below:
Temperature: 40° C.; Mobile phases: 0.1% aqueous formic acid and acetonitrile; linear gradient from 10% acetonitrile to 90% acetonitrile.
Calibration was carried out using unbranched alkan-2-ones (comprising 3 to 16 carbon atoms) with known log P values (determination of the log P values by the retention times using linear interpolation between two successive alkanones). lambda-max-values were determined using UV-spectra from 200 nm to 400 nm and the peak values of the chromatographic signals.

Row | logP | SMILES
1 | 5.45 | C[Si](C)(Cc1ccccc1Cl)CN(C(=O)c1ccccc1I)C1CC1 [Example 101]
2 | 5.45 | C[Si](C)(Cc1cc(Cl)cc(Cl)c1)CN(C(=O)c1nccnc1C(F)(F)F)C1CC1 [Example 116]
3 | 5.13 | C[Si](C)(CN(C(=S)c1cccnc1C(F)F)C1CC1)c1ccc(Cl)cc1Cl [Example 124]
4 | 4.72 | C[Si](C)(CN(C(=S)c1cccnc1C(F)F)C1CC1)c1ccc2ccccc2c1 [Example 125]
5 | 5.45 | C[Si](C)(Cc1cccc(Cl)c1)CN(C(=O)c1ccccc1I)C1CC1 [Example 107]
6 | 5.22 | C[Si](C)(Cc1cc(Cl)cc(Cl)c1)CN(C(=O)c1cccnc1C(F)(F)F)C1CC1 [Example 121]
7 | 4.59 | C[Si](C)(Cc1ccccc1Cl)CN(C(=O)c1cccnc1C(F)(F)F)C1CC1 [Example 103]
8 | 5.22 | C[Si](C)(Cc1ccc(Cl)cc1Cl)CN(C(=O)c1cccnc1C(F)(F)F)C1CC1 [Example 115]
9 | 6.14 | C[Si](C)(Cc1ccc(Cl)cc1Cl)CN(C(=O)c1ccccc1I)C1CC1 [Example 113]
10 | 5.94 | C[Si](C)(Cc1ccc(Cl)cc1Cl)CN(C(=O)c1ccccc1C(F)(F)F)C1CC1 [Example 114]
11 | 3.92 | CN(C[Si](C)(C)c1cc(Cl)cc(Cl)c1)C(=O)c1cccnc1C(F)F [Example 122]

The next lines start with the compound.

Row | SMILES | logP
12 | C[Si](C)(CN(C(=O)c1ccccc1C(F)(F)F)C1CC1)c1ccsc1 [Example 90] | 4.44
13 | C[Si](C)(CN(C(=O)c1cccnc1Cl)C1CC1)c1ccccc1Cl [Example 23] | 3.94
14 | C[Si](C)(Cc1ccccc1)CN(C(=O)c1ccccc1C(F)(F)F)C1CC1 [Example 96] | 4.90
15 | C[Si](C)(CN(C(=O)c1ccccc1C(F)(F)F)C1CC1)c1ccc(Cl)cc1Cl [Example 61] | 5.72
16 | CC1=C(C(=O)N(C[Si](C)(C)c2ccccc2Cl)C2CC2)SCCO1 [Example 43] | 4.29
17 | CCc1ccccc1[Si](C)(C)CN(C(=O)c1cccnc1Cl)C1CC1 [Example 18] | 4.16
18 | CCc1ccccc1[Si](C)(C)CN(C(=O)c1cccnc1C(F)F)C1CC1 [Example 19] | 4.06
19 | C[Si](C)(CN(C(=O)c1ccccc1I)C1CC1)c1cccs1 [Example 84] | 4.59
20 | C[Si](C)(CN(C(=O)c1cccnc1Cl)C1CC1)c1ccc2ccccc2c1 [Example 75] | 4.23
21 | C[Si](C)(CN(C(=O)c1cccnc1Cl)C1CC1)c1ccccc1 [Example 4] | 3.50
22 | CC[Si](C)(CN(C(=O)c1cccnc1C(F)(F)F)C1CC1)c1ccccc1Cl (stereo not shown) [Example 37] | 4.71
23 | C[Si](C)(CNC(=O)c1cccnc1C(F)F)c1ccc(Cl)cc1Cl [Example 57] | 3.64
24 | C[Si](C)(CN(C(=O)c1cccnc1C(F)(F)F)C1CC1)c1cccs1 [Example 81] | 3.80
25 | C[Si](C)(CN(C(=O)c1cccnc1Cl)C1CC1)c1ccccc1C(F)(F)F [Example 53] | 4.04
26 | C[Si](C)(CN(C(=O)c1ccccc1I)C1CC1)c1cccc2ccccc12 [Example 70] | 5.31
27 | C[Si](C)(CN(C(=O)c1cccnc1C(F)(F)F)C1CC1)c1cc(Cl)cc(Cl)c1 [Example 67] | 4.95
28 | C[Si](C)(CN(C(=O)c1ccccc1C(F)(F)F)C1CC1)c1cccs1 [Example 85] | 4.51
29 | C[Si](C)(Cc1ccccc1)CN(C(=O)c1ccccc1I)C1CC1 [Example 95] | 5.00
30 | C[Si](C)(CN(C(=O)c1ccccc1I)C1CC1)c1ccc2ccccc2c1 [Example 76] | 5.36
31 | CC1=C(C(=O)NC[Si](C)(C)c2ccccc2)SCCO1 [Example 6] | 3.13
32 | C[Si](C)(CN(C(=O)c1nccnc1C(F)(F)F)C1CC1)c1cc(Cl)cc(Cl)c1 [Example 64] | 4.95
33 | C[Si](C)(CN(C(=O)c1cccnc1Cl)C1CC1)c1ccsc1 [Example 88] | 3.33
34 | C[Si](C)(CN(C(=O)c1ccccc1C(F)(F)F)C1CC1)c1cccc(Cl)c1 [Example 31] | 5.03
